Measurements reported in paper PMC13266999, “Designing Antibiotics with Inherent Resistance to Efflux as a Strategy to Revive Discovery against Multidrug-Resistant Pathogens” (Journal of Medicinal Chemistry, 2026).
Values after ≈ are worked out from the molar mass of the structure shown. Where two headings read alike, the source gives them in different places.

Key:
Pharmacokinetics = conditions: male, ICR (CD-1), mouse
Procedure: Pharmacokinetic studies were performed in male ICR (CD-1) mice obtained from Charles River, UK. […] Blood samples were collected from the caudal vein into anticoagulant-treated capillaries at predetermined time points up to 8 h, with terminal cardiac puncture at 8 h. Plasma samples were stored at −80 °C until analysis. […] A compound-specific LC-MS/MS method was developed for each test article using matrix-matched calibrators following protein precipitation of samples.

S. aureus [1] = assay: Serial passaging, MIC of adapted strains; format: cell-based; conditions: Staphylococcus aureus
Procedure: MICs were performed on the first and 10th passage.

Acinetobacter baumannii = assay: MIC (microbroth dilution); format: cell-based; conditions: Acinetobacter baumannii
Procedure, shortened: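 Overnight stationary-phase bacteria were back-diluted and tested by broth microdilution, Streptococcus spp. in cation-adjusted Mueller Hinton broth plus 2.5% lysed horse blood, other species in tryptic soy broth. Some wells also received polymyxin B nonapeptide at 30 μg/mL final. Growth checked visually with OD600; MIC = minimum concentration showing no growth.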

K. pneumoniae = assay: MIC (microbroth dilution); format: cell-based, Klebsiella pneumoniae
Procedure, shortened: (§1)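 Broth microdilution MICs, defined as lowest compound level without visible growth (OD600 read), on bacteria grown overnight to stationary phase then diluted. Twofold compound dilutions; some wells also received PMBN, final 30 μg/mL, to permeabilize the outer membrane.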

A. baumannii = assay: Mutation frequency and agar MIC; format: cell-based; conditions: A118
Procedure: (§2) Mutation frequencies were performed on solid media at supra-inhibitory concentrations. First, the agar MIC was performed to account for any issues in solubility of compounds in solid media. Agar plates were prepared with 2-fold dilutions of compound.
(§3) For the mutation frequency assay, bacteria from an overnight culture were grown to mid exponential phase in liquid broth, then 100 μL was spread onto an agar plate containing compound at concentrations above the agar MIC. A Miles-Misra was also conducted on an antibiotic-free agar plate to determine the CFU/mL of the starting population. […] The mutation frequency was calculated by dividing the number of colonies on supra inhibitory con-centration plates by the starting population.

S. aureus [2] = assay: Mutation frequency and agar MIC; format: cell-based
Procedure: as §2, §3

E. coli [3] = assay: Mutation frequency and agar MIC; format: cell-based
Procedure: as §2, §3

E. coli [4] = assay: MIC (microbroth dilution); format: cell-based; conditions: Escherichia coli
Procedure, shortened: as §1

`C[C@H]1COc2c(N3CCN(C)CC3)c(F)cc3c(=O)c(C(=O)O)cn1c23` [Levofloxacin, (S)-9-Fluoro-3-methyl-10-(4-methylpiperazin-1-yl)-7-oxo-2,3-dihydro-7H-[1,4]oxazino[2,3,4-ij]quinoline-6-carboxylic acid, reference compound] showed a half-life (Pharmacokinetics; in vivo, po, 20 mg/kg) of 5.7 h, an AUC(0-inf) (Pharmacokinetics; plasma, iv, 5 mg/kg) of 9170 ng·h/mL and an MIC (S. aureus [1]; 1199B WT) of 1 µg/mL. For the same compound, the MIC (S. aureus [1]; 1199B adapted to 4 x MIC of Compound 7) was 4 µg/mL, the MIC (S. aureus [1]; 1199B adapted to 4 x MIC of Compound 46) was 2 µg/mL and the MIC (S. aureus [1]; 1199B adapted to 4 x MIC of Compound 50) was 4 µg/mL. For the same compound, the MIC (S. aureus [1]; 1199B adapted to 4 x MIC of Compound 51) was 2 µg/mL, the MIC (S. aureus [1]; 1199 WT) was 0.125 µg/mL and the MIC (S. aureus [1]; 1199 adapted to 4 x MIC of Compound 7) was 1 µg/mL. The MIC (S. aureus [1]; 1199 adapted to 4 x MIC of Compound 46) was 0.25 µg/mL, the MIC (S. aureus [1]; 1199 adapted to 4 x MIC of Compound 50) was 1 µg/mL and the MIC (S. aureus [1]; 1199 adapted to 4 x MIC of Compound 51) was 0.25 µg/mL. For the same compound, the MIC (S. aureus [1]; NCTC13616, NCTC 13616 WT) was 8 µg/mL, the MIC (S. aureus [1]; NCTC13616, NCTC 13616 adapted to 4 x MIC of Compound 7) was > 32 µg/mL and the MIC (S. aureus [1]; NCTC13616, NCTC 13616 adapted to 4 x MIC of Compound 46) was 16 µg/mL. For the same compound, the MIC (S. aureus [1]; NCTC13616, NCTC 13616 adapted to 4 x MIC of Compound 50) was 16 µg/mL, the MIC (S. aureus [1]; NCTC13616, NCTC 13616 adapted to 4 x MIC of Compound 51) was 32 µg/mL and the MIC (Acinetobacter baumannii; A118) was ≤ 0.06 µg/mL. The MIC (Acinetobacter baumannii; ATCC17978, ATCC 17978, read-out: MIC) was 0.125 µg/mL (≈ 0.346 µM), the MIC (Acinetobacter baumannii; BAA1709, BAA-1709, read-out: MIC) was 0.125 µg/mL (≈ 0.346 µM) and the MIC (Acinetobacter baumannii; BAA1710, BAA-1710 (AYE), read-out: MIC) was 4 µg/mL (≈ 11.1 µM). The MIC (Acinetobacter baumannii; BAA2093, BAA-2093, read-out: MIC) was 0.06 µg/mL (≈ 0.166 µM), the MIC (Acinetobacter baumannii; NCTC10303, NCTC 10303, read-out: MIC) was 0.125 µg/mL (≈ 0.346 µM) and the MIC (Acinetobacter baumannii; NCTC12156, NCTC 12156, read-out: MIC) was 1 µg/mL (≈ 2.77 µM). It also gave an MIC (Acinetobacter baumannii; NCTC13302, NCTC 13302, oxa24, read-out: MIC) of 4 µg/mL (≈ 11.1 µM), an MIC (Acinetobacter baumannii; NCTC13424, NCTC 13424, oxa23, read-out: MIC) of 64 µg/mL (≈ 177 µM) and an MIC (Acinetobacter baumannii; UKA1, oxa23, read-out: MIC) of 2 µg/mL (≈ 5.53 µM). For the same compound, the MIC (Acinetobacter baumannii; UKA2, Low resistance, read-out: MIC) was 4 µg/mL (≈ 11.1 µM), the MIC (Acinetobacter baumannii; UKA9, read-out: MIC) was 0.125 µg/mL (≈ 0.346 µM) and the MIC (Acinetobacter baumannii; UKA12, oxa23, read-out: MIC) was 8 µg/mL (≈ 22.1 µM). For the same compound, the MIC (Acinetobacter baumannii; UKA13, oxa23, read-out: MIC) was 16 µg/mL (≈ 44.3 µM), the MIC (Acinetobacter baumannii; UKA15, oxa23, read-out: MIC) was 4 µg/mL (≈ 11.1 µM) and the MIC (Acinetobacter baumannii; UKA19, read-out: MIC) was 1 µg/mL (≈ 2.77 µM). The MIC (Acinetobacter baumannii; W1, read-out: MIC) was 8 µg/mL (≈ 22.1 µM), the MIC50 (Acinetobacter baumannii; panel of 25 A. baumannii strains) was 4 µg/mL (≈ 11.1 µM) and the MIC (K. pneumoniae; Klebsiella pneumoniae) was 0.125 µg/mL (≈ 0.346 µM). It also gave an MIC (K. pneumoniae; Klebsiella pneumoniae, NCTC13368, NCTC 13368, read-out: MIC) of 2 µg/mL (≈ 5.53 µM), an MIC (K. pneumoniae; TW3) of 0.125 µg/mL (≈ 0.346 µM) and an Agar MIC (A. baumannii) of 0.06 µg/mL. It also gave an Agar MIC (S. aureus [2]; ATCC 9144) of 0.12 µg/mL, an Agar MIC (S. aureus [2]; NCTC 13616) of 4 µg/mL and an Agar MIC (E. coli [3]; NCTC 12241) of 0.03 µg/mL. For the same compound, the Agar MIC (E. coli [3]; NCTC 12923) was 0.0078 µg/mL, the MIC (E. coli [4]; 319238/UR) was 8 µg/mL (≈ 22.1 µM) and the MIC (E. coli [4]; LEC006) was ≤ 0.06 µg/mL. For the same compound, the MIC (E. coli [4]; LEC007) was ≤ 0.06 µg/mL, the MIC (E. coli [4]; LEC077) was 0.5 µg/mL (≈ 1.38 µM) and the MIC (E. coli [4]; LEC081) was 0.5 µg/mL (≈ 1.38 µM). The MIC (E. coli [4]; NCTC10418, NCTC 10418) was ≤ 0.06 µg/mL, the MIC (E. coli [4]; NCTC11954, NCTC 11954) was ≤ 0.06 µg/mL and the MIC (E. coli [4]; NCTC12241, NCTC 12241) was ≤ 0.06 µg/mL. The MIC (E. coli [4]; NCTC12923, NCTC 12923) was ≤ 0.016 µg/mL.
